According to patent publication US20250382297A1, “INHIBITORS OF FGFR2 AND FGFR3 AND USES THEREOF” (Insilico Medicine IP Limited, priority 2022, published 2025):
Like-named read-outs stand apart in the source and are kept apart here.

How the values were obtained:
FGFR3 = FGFR3 (Homo sapiens (Human), UniProt P22607); assay: FGFR biochemical assay (LanthaScreen TR-FRET kinase assay), FGFR3
Method: (§1) Convert Ratio values to percent inhibition values (Percent inhibition=(max−sample Ratio)/(max−min)*100) where “min” means the Ratio of no enzyme control and “max” means the Ratio of DMSO control. • Data are analyzed and curve fitting is performed by XLFit Excel add-in version 5.4.0.8. The IC50 calculation equation is: Y=Bottom+(Top-Bottom)/(1+ (IC50/X)^HillSlope.

FGFR1 = FGFR1 (Homo sapiens (Human), UniProt P11362); assay: FGFR biochemical assay (LanthaScreen TR-FRET kinase assay), FGFR1
Sequence of FGFR1 (P11362 22-822): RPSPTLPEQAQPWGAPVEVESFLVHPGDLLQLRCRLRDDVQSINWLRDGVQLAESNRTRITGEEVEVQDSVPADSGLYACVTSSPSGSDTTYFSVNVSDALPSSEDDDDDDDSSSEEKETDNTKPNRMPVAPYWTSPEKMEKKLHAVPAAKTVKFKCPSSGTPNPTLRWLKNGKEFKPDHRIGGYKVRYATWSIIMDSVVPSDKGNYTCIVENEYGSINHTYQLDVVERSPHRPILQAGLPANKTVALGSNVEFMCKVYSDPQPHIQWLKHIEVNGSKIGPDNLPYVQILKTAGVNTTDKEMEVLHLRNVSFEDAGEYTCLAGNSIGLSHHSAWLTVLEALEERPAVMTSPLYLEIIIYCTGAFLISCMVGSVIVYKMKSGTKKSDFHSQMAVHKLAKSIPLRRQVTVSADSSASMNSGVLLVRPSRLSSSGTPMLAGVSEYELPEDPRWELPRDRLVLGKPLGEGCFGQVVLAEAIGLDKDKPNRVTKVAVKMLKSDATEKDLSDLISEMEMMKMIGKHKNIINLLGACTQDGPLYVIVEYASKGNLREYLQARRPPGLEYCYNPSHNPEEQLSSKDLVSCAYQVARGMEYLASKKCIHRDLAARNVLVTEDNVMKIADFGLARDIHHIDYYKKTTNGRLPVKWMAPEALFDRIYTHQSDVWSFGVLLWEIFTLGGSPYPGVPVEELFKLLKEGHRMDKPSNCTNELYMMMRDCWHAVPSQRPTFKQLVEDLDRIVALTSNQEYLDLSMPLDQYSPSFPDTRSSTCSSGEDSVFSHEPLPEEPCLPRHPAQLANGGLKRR
Method: as §1

FGFR2 = FGFR2 (Homo sapiens (Human), UniProt P21802); assay: FGFR biochemical assay (LanthaScreen TR-FRET kinase assay), FGFR2
Sequence of FGFR2 (P21802 22-821): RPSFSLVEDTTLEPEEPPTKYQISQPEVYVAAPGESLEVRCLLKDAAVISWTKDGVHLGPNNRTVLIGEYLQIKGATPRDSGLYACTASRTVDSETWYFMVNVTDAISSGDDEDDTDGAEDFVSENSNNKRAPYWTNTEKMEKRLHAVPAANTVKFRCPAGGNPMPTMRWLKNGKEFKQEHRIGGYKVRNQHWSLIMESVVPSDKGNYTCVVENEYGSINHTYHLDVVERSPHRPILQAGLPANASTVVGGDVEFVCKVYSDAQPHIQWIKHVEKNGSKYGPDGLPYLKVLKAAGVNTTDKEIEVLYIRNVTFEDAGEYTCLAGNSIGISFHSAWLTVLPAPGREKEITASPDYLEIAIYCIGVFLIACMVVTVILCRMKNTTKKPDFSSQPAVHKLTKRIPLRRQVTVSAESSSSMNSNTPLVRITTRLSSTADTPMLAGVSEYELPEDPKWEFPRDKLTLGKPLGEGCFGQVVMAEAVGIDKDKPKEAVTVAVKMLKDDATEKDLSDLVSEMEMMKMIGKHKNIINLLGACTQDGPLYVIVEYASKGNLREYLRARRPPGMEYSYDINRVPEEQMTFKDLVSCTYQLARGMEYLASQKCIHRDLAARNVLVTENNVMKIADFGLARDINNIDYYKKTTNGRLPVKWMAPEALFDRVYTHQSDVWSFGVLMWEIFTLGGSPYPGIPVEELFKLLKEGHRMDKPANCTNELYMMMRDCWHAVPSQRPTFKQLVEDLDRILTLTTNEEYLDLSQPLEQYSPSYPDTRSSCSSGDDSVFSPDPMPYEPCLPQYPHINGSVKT
Method: as §1

[1] = read-out: FGFR2 IC50, * incubation at room temperature for 60 minutes before addition of substrate solution, ATP 22 μM, FGFR2 0.01 nM
[2] = read-out: FGFR3 IC50, * incubation at room temperature for 60 minutes before addition of substrate solution, ATP 35 μM, FGFR3 0.1 nM
[3] = read-out: FGFR2 IC50, incubation with enzyme at room temperature for 10 minutes before substrate, ATP 22 μM, FGFR2 0.01 nM
[4] = read-out: FGFR1 IC50, * incubation at room temperature for 60 minutes before addition of substrate solution, ATP 28 μM, FGFR1 0.01 nM
[5] = read-out: FGFR3 IC50, incubation with enzyme at room temperature for 10 minutes before substrate, ATP 35 μM, FGFR3 0.1 nM
[6] = read-out: FGFR1 IC50, incubation with enzyme at room temperature for 10 minutes before substrate, ATP 28 μM, FGFR1 0.01 nM

Sequence of FGFR3 (P22607 23-806): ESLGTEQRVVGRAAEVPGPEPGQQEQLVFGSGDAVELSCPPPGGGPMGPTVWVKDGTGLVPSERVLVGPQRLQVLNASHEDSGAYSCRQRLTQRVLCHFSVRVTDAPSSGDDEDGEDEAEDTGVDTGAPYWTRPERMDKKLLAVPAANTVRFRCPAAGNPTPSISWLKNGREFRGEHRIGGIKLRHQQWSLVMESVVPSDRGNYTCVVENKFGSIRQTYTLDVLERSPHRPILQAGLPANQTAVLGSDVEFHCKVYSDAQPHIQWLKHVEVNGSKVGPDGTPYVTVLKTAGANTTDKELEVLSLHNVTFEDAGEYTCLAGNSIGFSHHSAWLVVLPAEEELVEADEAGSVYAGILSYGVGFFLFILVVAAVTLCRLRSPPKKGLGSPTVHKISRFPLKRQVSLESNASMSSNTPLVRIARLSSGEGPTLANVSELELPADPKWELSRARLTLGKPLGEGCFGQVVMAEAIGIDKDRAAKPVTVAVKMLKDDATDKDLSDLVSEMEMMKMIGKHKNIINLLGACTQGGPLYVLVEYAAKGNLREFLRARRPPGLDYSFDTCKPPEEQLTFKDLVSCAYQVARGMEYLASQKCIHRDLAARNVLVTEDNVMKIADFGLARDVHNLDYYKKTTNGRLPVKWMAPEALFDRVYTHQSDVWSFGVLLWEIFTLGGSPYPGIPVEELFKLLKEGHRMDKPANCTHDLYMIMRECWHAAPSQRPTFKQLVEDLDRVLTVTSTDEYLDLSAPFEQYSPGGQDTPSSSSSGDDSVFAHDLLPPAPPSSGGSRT

Compound | IC50 (FGFR3) [µM] | IC50 (FGFR1) [µM] | IC50 (FGFR2) [µM] | IC50 (FGFR2; [3]) [µM] | also measured
C=C(F)C(=O)Nc1ccc(-c2c(-c3ccc(Oc4nccc(C)n4)c(F)c3)c(C(N)=O)c3ccccn23)cc1 [Example 107, 2-(3-fluoro-4-((4-methylpyrimidin-2-yl)oxy)phenyl)-3-(4-(2-fluoroacrylamido)phenyl) indolizine-1-carboxamide] | 0.01 to 0.1 | 0.1 to 1 |  |  | 
C=C(F)C(=O)N1CCc2cc(-c3c(-c4ccc(Oc5nccc(C)n5)c(F)c4)c(C(N)=O)c4cnc(C)cn34)ccc21 [Example 72, 7-(3-fluoro-4-((4-methylpyrimidin-2-yl)oxy)phenyl)-6-(1-(2-fluoroacryloyl)indolin-5-yl)-3-methylpyrrolo[1,2-a]pyrazine-8-carboxamide] | 0.01 to 0.1 | 0.1 to 1 |  |  | IC50 (FGFR2; [1]): < 0.01 µM
C=C(F)C(=O)Nc1ccc(-c2c(-c3ccc(Oc4nccc(C)n4)cc3)c(C(N)=O)c3cnc(CCO)cn23)c(F)c1 [Example 81, 6-(2-fluoro-4-(2-fluoroacrylamido)phenyl)-3-(2-hydroxyethyl)-7-(4-((4-methylpyrimidin-2-yl)oxy)phenyl)pyrrolo[1,2-a]pyrazine-8-carboxamide] |  | 0.01 to 0.1 |  |  | IC50 (FGFR3; [2]): < 0.01 µM; IC50 (FGFR2; [1]): < 0.01 µM
C=C(F)C(=O)Nc1ccc(-c2c(-c3ccc(Oc4ncc(F)c(C)n4)c(F)c3)c(C(N)=O)c3cnc(C)cn23)cc1 [Example 54, 7-(3-fluoro-4-((5-fluoro-4-methylpyrimidin-2-yl)oxy)phenyl)-6-(4-(2-fluoroacrylamido)phenyl)-3-methylpyrrolo[1,2-a]pyrazine-8-carboxamide] | 0.01 to 0.1 | 0.1 to 1 | 0.01 to 0.1 |  | 
C=CC(=O)N1CC=C(c2c(-c3ccc(Oc4nccc(C)n4)c(F)c3)c(C(N)=O)c3cnc(C)cn23)CC1 [Example 101, 6-(1-acryloyl-1,2,3,6-tetrahydropyridin-4-yl)-7-(3-fluoro-4-((4-methylpyrimidin-2-yl)oxy)phenyl)-3-methylpyrrolo[1,2-a]pyrazine-8-carboxamide] | 0.01 to 0.1 | 0.01 to 0.1 | 0.01 to 0.1 |  | 
Cc1ccnc(Oc2ccc(-c3c(C(N)=O)c4cnc(CO)cn4c3-c3ccc(NC(=O)/C=C/CN(C)C)cc3)cc2)n1 [Example 79, (E)-6-(4-(4-(dimethylamino)but-2-enamido)phenyl)-3-(hydroxymethyl)-7-(4-((4-methylpyrimidin-2-yl)oxy)phenyl)pyrrolo[1,2-a]pyrazine-8-carboxamide] | 0.01 to 0.1 | 0.01 to 0.1 |  | < 0.01 | 
C=C(F)C(=O)N1CCc2cc(-c3c(-c4ccc(Oc5nccc(C)n5)c(F)c4)c(C(N)=O)c4ccc(C)nn34)ccc21 [Example 95, 6-(3-fluoro-4-((4-methylpyrimidin-2-yl)oxy)phenyl)-7-(1-(2-fluoroacryloyl)indolin-5-yl)-2-methylpyrrolo[1,2-b]pyridazine-5-carboxamide] | 0.1 to 1 |  | 0.01 to 0.1 |  | IC50 (FGFR1; [4]): > 1 µM
C=CC(=O)Nc1ccc(-c2c(-c3ccc(Oc4nccc(C)n4)c(F)c3)c(C(N)=O)c3cnc(C)cn23)cc1 [Example 35, 6-(4-acrylamidophenyl)-7-(3-fluoro-4-((4-methylpyrimidin-2-yl)oxy)phenyl)-3-methylpyrrolo[1,2-a]pyrazine-8-carboxamide] |  | 0.01 to 0.1 |  | < 0.01 | IC50 (FGFR3; [5]): < 0.01 µM
C=CC(=O)Nc1ccc(-c2c(-c3ccc(Oc4cccc(C)n4)cc3)c(C(N)=O)c3ccncn23)cc1 [Example 15, 7-(4-acrylamidophenyl)-6-(4-((6-methylpyridin-2-yl)oxy)phenyl)pyrrolo[1,2-c]pyrimidine-5-carboxamide] | 0.01 to 0.1 | 0.1 to 1 |  | < 0.01 | 
C=CC(=O)Nc1cc(C)c(-c2c(-c3ccc(Oc4cccc(C)n4)cc3)c(C(N)=O)c3cnccn23)cn1 [Example 4, 6-(6-acrylamido-4-methylpyridin-3-yl)-7-(4-((6-methylpyridin-2-yl)oxy)phenyl)pyrrolo[1,2-a]pyrazine-8-carboxamide] | 0.01 to 0.1 | 0.01 to 0.1 | 0.01 to 0.1 |  | 
C=CC(=O)Nc1ccc(-c2c(-c3ccc(Oc4cccc(C)n4)cc3)c(C(N)=O)c3cnc(S(=O)(=O)NC)cn23)cc1 [Example 18, 6-(4-acrylamidophenyl)-7-(4-((6-methylpyridin-2-yl)oxy)phenyl)-3-(N-methylsulfamoyl)pyrrolo[1,2-a]pyrazine-8-carboxamide] | 0.01 to 0.1 | 0.1 to 1 |  | < 0.01 | 
C=C(F)C(=O)Nc1ccc(-c2c(-c3ccc(Oc4nccc(C)n4)c(F)c3)c(C(N)=O)c3cc(C)ncn23)cc1 [Example 85, 6-(3-fluoro-4-((4-methylpyrimidin-2-yl)oxy)phenyl)-7-(4-(2-fluoroacrylamido)phenyl)-3-methylpyrrolo[1,2-c]pyrimidine-5-carboxamide] | 0.01 to 0.1 | 0.1 to 1 |  |  | IC50 (FGFR2; [1]): < 0.01 µM
C=C(F)C(=O)Nc1ccc(-c2c(-c3ccc(Oc4nccc(C)n4)c(F)c3)c(C(N)=O)c3cnc(C)cn23)cn1 [Example 51, 7-(3-fluoro-4-((4-methylpyrimidin-2-yl)oxy)phenyl)-6-(6-(2-fluoroacrylamido)pyridin-3-yl)-3-methylpyrrolo[1,2-a]pyrazine-8-carboxamide] | 0.01 to 0.1 | 0.01 to 0.1 |  | < 0.01 | 
C=C(F)C(=O)Nc1ccc(-c2c(-c3ccc(C(=O)NCC4(F)COC4)cc3)c(C(N)=O)c3cnc(C)cn23)cc1 [Example 63, 6-(4-(2-fluoroacrylamido)phenyl)-7-(4-(((3-fluorooxetan-3-yl)methyl)carbamoyl)phenyl)-3-methylpyrrolo[1,2-a]pyrazine-8-carboxamide] | 0.01 to 0.1 | 0.01 to 0.1 |  |  | IC50 (FGFR2; [1]): < 0.01 µM
C=CC(=O)Nc1ccc(-c2c(-c3ccc(S(=O)(=O)C4CC4)cc3)c(C(N)=O)c3cnccn23)cc1 [Example 27, 6-(4-acrylamidophenyl)-7-(4-(cyclopropylsulfonyl)phenyl)pyrrolo[1,2-a]pyrazine-8-carboxamide] | 0.1 to 1 |  | 0.1 to 1 |  | IC50 (FGFR1; [6]): > 1 µM
C=C(F)C(=O)Nc1ccc(-c2c(-c3ccc(Oc4nccc(C)n4)c(F)c3)c(C(N)=O)c3cc(-c4cnn(C)c4)ncn23)cc1 [Example 86, 6-(3-fluoro-4-((4-methylpyrimidin-2-yl)oxy)phenyl)-7-(4-(2-fluoroacrylamido)phenyl)-3-(1-methyl-1H-pyrazol-4-yl)pyrrolo[1,2-c]pyrimidine-5-carboxamide] | 0.01 to 0.1 | 0.01 to 0.1 |  |  | IC50 (FGFR2; [1]): < 0.01 µM
C=CC(=O)Nc1ccc(-c2c(-c3ccc(Oc4cccc(C)n4)c(F)c3)c(C(N)=O)c3cnccn23)cc1 [Example 32, 6-(4-acrylamidophenyl)-7-(3-fluoro-4-((6-methylpyridin-2-yl)oxy)phenyl)pyrrolo[1,2-a]pyrazine-8-carboxamide] |  | 0.01 to 0.1 |  | < 0.01 | IC50 (FGFR3; [5]): < 0.01 µM
C=CC(=O)Nc1ccc(-c2c(-c3ccc(Oc4nccc(C)n4)c(F)c3)c(C(N)=O)c3cnccn23)cc1 [Example 33, 6-(4-acrylamidophenyl)-7-(3-fluoro-4-((4-methylpyrimidin-2-yl)oxy)phenyl)pyrrolo[1,2-a]pyrazine-8-carboxamide] | 0.01 to 0.1 | 0.01 to 0.1 |  | < 0.01 | 
C=CC(=O)Nc1ccc(-c2c(-c3ccc(Oc4cccc(C)n4)c(OC)c3)c(C(N)=O)c3cnccn23)cc1 [Example 25, 6-(4-acrylamidophenyl)-7-(3-methoxy-4-((6-methylpyridin-2-yl)oxy)phenyl)pyrrolo[1,2-a]pyrazine-8-carboxamide] | 0.01 to 0.1 | 0.1 to 1 |  | < 0.01 | 
C=CC(=O)Nc1ccc(-c2c(-c3ccc(Oc4nccc(C)n4)c(F)c3)c(C(N)=O)c3cnc(C)cn23)cc1C [Example 37, 6-(4-acrylamido-3-methylphenyl)-7-(3-fluoro-4-((4-methylpyrimidin-2-yl)oxy)phenyl)-3-methylpyrrolo[1,2-a]pyrazine-8-carboxamide] | 0.1 to 1 |  | 0.01 to 0.1 |  | IC50 (FGFR1; [6]): > 1 µM
C=C(F)C(=O)Nc1ccc(-c2c(-c3ccc(Oc4nc(C)cc(C)n4)c(F)c3)c(C(N)=O)c3cnc(C)cn23)cc1 [Example 53, 7-(4-((4,6-dimethylpyrimidin-2-yl)oxy)-3-fluorophenyl)-6-(4-(2-fluoroacrylamido)phenyl)-3-methylpyrrolo[1,2-a]pyrazine-8-carboxamide] | 0.1 to 1 |  | 0.01 to 0.1 |  | IC50 (FGFR1; [4]): > 1 µM
C=CC(=O)Nc1ccc(-c2c(-c3ccc(Oc4cccc(C)n4)cc3)c(C(N)=O)c3cccnn23)cc1 [Example 20, 7-(4-acrylamidophenyl)-6-(4-((6-methylpyridin-2-yl)oxy)phenyl)pyrrolo[1,2-b]pyridazine-5-carboxamide] | 0.01 to 0.1 | 0.01 to 0.1 |  | < 0.01 | 
C=C(F)C(=O)Nc1ccc(-c2c(-c3ccc(Oc4nccc(C)n4)c(F)c3)c(C(N)=O)c3cnc(CCO)cn23)c(F)c1 [Example 82, 7-(3-fluoro-4-((4-methylpyrimidin-2-yl)oxy)phenyl)-6-(2-fluoro-4-(2-fluoroacrylamido)phenyl)-3-(2-hydroxyethyl)pyrrolo[1,2-a]pyrazine-8-carboxamide] |  | 0.01 to 0.1 |  |  | IC50 (FGFR3; [2]): < 0.01 µM; IC50 (FGFR2; [1]): < 0.01 µM
